Series [1] relates to murine articular cartilage cells. The series is described as follows: Cell viability (WST1) of articular cartilage cells. Format: cell-based. The conditions noted are these: concentrations as high as 1 μM, 48 hrs, WST1, n=3. The method, then: With respect to toxicity, murine articular cartilage cells were treated with indicated concentration of SHP2D26 for 48 hrs. Cell viabilities were measured using WST1 (n=3).

In series [2] the target is T1, SHP2 (Homo sapiens, UniProt Q06124). On the set-up: host or cells: esophageal cancer cells (endogenous SHP2). The note with it: cited from earlier work.
In series [3] the target is T2, SHP2 (Mus musculus, UniProt P35235).
T2 construct: endogenous in cells; host or cells: Prg4+ murine articular cartilage (AC) cells
The series is described as follows: SHP2 degradation in Prg4+ articular cartilage cells (Western blot). Format: cell-based, murine. The note with it: chondrocytes, a week after withdrawal. For orientation: In western blotting, separated proteins are transferred to a membrane and probed.

The target of series [4] is T1, SHP2. The note with it: read-out: SHP2 IC50; cited from earlier work.

Structures are written as SMILES. pIC50: −log10 of the molar value. Like-named read-outs stand apart in the source and are kept apart here.

T1 sequence (Q06124 whole entry): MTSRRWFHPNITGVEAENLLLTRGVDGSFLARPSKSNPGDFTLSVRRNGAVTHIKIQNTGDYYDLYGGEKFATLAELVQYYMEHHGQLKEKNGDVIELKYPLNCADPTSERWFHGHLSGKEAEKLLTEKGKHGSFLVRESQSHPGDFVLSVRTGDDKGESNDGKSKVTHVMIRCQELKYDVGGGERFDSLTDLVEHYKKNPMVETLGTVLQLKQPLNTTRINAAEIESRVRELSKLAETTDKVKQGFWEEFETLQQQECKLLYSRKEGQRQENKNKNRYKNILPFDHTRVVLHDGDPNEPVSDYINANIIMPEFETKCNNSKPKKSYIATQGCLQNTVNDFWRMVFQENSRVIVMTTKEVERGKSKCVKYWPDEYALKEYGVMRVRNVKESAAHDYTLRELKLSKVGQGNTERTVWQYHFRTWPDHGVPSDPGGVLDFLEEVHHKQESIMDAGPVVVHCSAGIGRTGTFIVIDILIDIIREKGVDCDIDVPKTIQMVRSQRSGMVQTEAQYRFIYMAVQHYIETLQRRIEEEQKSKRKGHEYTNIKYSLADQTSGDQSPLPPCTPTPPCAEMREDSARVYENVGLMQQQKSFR
T2 sequence (P35235 whole entry): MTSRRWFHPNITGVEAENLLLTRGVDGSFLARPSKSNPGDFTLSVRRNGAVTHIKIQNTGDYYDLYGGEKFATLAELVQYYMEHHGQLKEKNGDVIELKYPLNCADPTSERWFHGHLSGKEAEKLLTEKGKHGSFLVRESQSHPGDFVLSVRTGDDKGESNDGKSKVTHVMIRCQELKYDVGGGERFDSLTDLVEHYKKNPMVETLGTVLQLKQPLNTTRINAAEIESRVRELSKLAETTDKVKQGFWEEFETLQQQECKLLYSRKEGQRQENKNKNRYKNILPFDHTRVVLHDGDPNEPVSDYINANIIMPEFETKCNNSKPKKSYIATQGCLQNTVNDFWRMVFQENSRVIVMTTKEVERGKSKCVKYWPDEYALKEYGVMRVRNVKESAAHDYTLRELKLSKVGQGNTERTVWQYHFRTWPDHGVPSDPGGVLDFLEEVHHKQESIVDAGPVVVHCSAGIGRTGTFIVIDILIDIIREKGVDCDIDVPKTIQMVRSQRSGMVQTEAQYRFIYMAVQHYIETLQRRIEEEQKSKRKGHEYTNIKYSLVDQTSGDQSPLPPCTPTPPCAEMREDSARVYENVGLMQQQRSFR

For the compound `Cc1ncsc1-c1ccc([C@H](C)NC(=O)[C@@H]2C[C@@H](O)CN2C(=O)[C@@H](NC(=O)CCCCCCCCN2CCN(C(=O)CCC(=O)Nc3cccc(Sc4ncc(N5CCC(C)(N)CC5)nc4N)c3Cl)CC2)C(C)(C)C)cc1` [SHP-D26, (2S,4R)-1-((S)-2-(9-(4-(4-((3-((3-amino-5-(4-amino-4-methylpiperidin-1-yl)pyrazin-2-yl)thio)-2-chlorophenyl)amino)-4-oxobutanoyl)piperazin-1-yl)nonanamido)-3,3-dimethylbutanoyl)-4-hydroxy-N-((S)-1-(4-(4-methylthiazol-5-yl)phenyl)ethyl)pyrrolidine-2-carboxamide], the cell viability entry in series [1] was “did not compromise cell viability”. Also, the DC50 is 2.6 nM on SHP2 [2] (acute myeloid leukemia MV4, 11 cells, read-out: DC50); 6 nM at SHP2 [2] (esophageal cancer KYSE520 cells, read-out: DC50); 2.6 to 6 nM on SHP2 [2] (range over the cancer cell lines, read-out: SHP2 DC50). On SHP2 [3], the “SHP2 recovered after complete withdrawal of compound from culture medium” value is on record as “about 50%”.
The pIC50 is −log10 of the IC50, conventionally taken in molar units. Consider `O=C1/C(=N\Nc2ccc(S(=O)(=O)O)cc2)C(c2ccc([N+](=O)[O-])cc2)=NN1c1ccc([N+](=O)[O-])cc1` [GS-493, 4-((2 Z)-2-(1,3-bis (4-Nitrophenyl)-5-oxo-1,5-dihydro-4H-pyrazol-4-yliden)hydrazino) benzenesulfonic acid, (Z)-4-(2-(1,3-bis(4-Nitrophenyl)-5-oxo-1H-pyrazol-4(5H)-ylidene)hydrazinyl)benzenesulfonic acid], for which, at SHP2 [4], the pIC50 was 4.15.
Take `C[C@@H]1OCC2(CCN(c3nc4[nH]nc(-c5ccnc(NC6CC6)c5Cl)c4c(=O)n3C)CC2)[C@@H]1N` [SHP389, 6-((3S,4S)-4-Amino-3-methyl-2-oxa-8-azaspiro[4.5]decan-8-yl)-3-(3-chloro-2-(cyclopropylamino)pyridin-4-yl)-5-methyl-2,5-dihydro-4H-pyrazolo[3,4-d]pyrimidin-4-one]: the pIC50 on SHP2 [4] was 4.44.
In the case of `O=c1c2ccccc2n2c(-c3ccccc3O)nnc2n1Cc1ccccc1Cl` [SHP357], the negative-log IC50 (pIC50) on SHP2 [4] was < 4.00.

These data come from patent publication US20240197725A1, “METHOD AND COMPOSITION FOR THE PREVENTION OR TREATMENT OF OSTEOARTHRITIS” (Rhode Island Hospital, priority 2021, published 2024).
